Tests used:
HeLa = test: Antiproliferative activity against human HeLa cells after 72 hrs by MTS assay; type: functional
K562 [1] = test: Antiproliferative activity against human K562 cells after 72 hrs by MTS assay; type: functional; details: K562, 72 h
MCF7 = test: Antiproliferative activity against human MCF7 cells after 72 hrs by MTS assay; type: functional; details: MCF7, 72 h
HT-29 = test: Antiproliferative activity against human HT-29 cells after 72 hrs by MTS assay; type: functional; details: HT-29, 72 h
Caco-2 = test: Antiproliferative activity against human Caco2 cells after 72 hrs by MTS assay; type: functional; details: Caco-2, 72 h
[2] = target: T1, Ribonucleoside-diphosphate reductase RR1 (Homo sapiens) (UniProt P23921+Q7LG56+P31350); test: (§1) Inhibition of human recombinant ribonucleotide reductase M2/M1 expressed in Escherichia coli BL21 (DE3) after 30 mins by [3H]CDP reduction method
[3] = target: T2, Ribonucleoside-diphosphate reductase RR1 (Homo sapiens, UniProt P23921+P31350+Q7LG56); test: as §1
T2 sequence (P23921 whole entry): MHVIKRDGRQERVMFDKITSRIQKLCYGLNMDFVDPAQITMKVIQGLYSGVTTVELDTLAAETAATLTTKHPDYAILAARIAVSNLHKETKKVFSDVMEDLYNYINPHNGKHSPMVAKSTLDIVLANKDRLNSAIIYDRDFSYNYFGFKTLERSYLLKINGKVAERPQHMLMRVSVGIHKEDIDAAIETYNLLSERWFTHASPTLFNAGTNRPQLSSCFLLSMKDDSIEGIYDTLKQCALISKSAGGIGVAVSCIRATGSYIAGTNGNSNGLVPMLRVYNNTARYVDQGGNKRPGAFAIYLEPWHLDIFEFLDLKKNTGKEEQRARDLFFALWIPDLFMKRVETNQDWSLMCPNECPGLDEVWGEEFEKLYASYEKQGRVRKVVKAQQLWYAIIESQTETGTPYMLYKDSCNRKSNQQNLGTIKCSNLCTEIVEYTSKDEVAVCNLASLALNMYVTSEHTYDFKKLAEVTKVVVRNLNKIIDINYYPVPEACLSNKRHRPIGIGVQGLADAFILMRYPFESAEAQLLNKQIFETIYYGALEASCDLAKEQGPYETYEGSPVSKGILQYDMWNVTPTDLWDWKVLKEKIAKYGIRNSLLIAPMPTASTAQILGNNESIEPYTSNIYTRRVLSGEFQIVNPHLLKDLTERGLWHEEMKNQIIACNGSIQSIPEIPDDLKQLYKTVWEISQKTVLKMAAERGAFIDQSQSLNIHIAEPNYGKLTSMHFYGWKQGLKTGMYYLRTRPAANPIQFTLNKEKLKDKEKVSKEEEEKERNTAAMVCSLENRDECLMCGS
T2 sequence (Q7LG56 whole entry): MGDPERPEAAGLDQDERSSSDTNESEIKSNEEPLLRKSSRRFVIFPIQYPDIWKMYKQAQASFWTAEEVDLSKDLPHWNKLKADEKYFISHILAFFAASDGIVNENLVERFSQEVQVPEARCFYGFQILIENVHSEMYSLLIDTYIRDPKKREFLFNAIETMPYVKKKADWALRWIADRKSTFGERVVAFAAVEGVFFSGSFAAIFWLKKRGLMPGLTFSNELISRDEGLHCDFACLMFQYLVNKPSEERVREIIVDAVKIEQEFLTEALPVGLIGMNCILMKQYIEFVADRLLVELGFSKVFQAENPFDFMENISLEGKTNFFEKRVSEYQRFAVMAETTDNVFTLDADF
T2 sequence (P31350 whole entry): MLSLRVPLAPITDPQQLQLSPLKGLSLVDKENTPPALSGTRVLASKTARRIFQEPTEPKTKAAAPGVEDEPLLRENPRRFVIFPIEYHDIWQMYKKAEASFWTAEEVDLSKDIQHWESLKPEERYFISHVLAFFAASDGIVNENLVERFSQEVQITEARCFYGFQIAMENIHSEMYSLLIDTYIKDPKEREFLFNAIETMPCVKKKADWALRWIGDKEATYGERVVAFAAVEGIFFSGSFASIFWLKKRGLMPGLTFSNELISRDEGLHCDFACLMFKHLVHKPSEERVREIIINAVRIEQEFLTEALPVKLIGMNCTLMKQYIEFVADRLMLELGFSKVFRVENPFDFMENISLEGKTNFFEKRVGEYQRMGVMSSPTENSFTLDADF

[4] = target: T1, Ribonucleoside-diphosphate reductase RR1 (Homo sapiens); test: (§2) Inhibition of human recombinant ribonucleotide reductase p53R2/M1 expressed in Escherichia coli BL21 (DE3) after 30 mins by [3H]CDP reduction method
[5] = target: T2, Ribonucleoside-diphosphate reductase RR1; test: as §2
K562 [6] = test: Antiproliferative activity against doxorubicin-sensitive human K562 cells after 72 hrs by MTS assay; type: functional; details: K562, 72 h, read-out: GI100

Compound: CO/N=c1/[nH]c(N)nc2c1ncn2[C@@H]1O[C@H](CO)[C@@H](O)[C@H]1O
- GI50 (HeLa): > 100 µM
- GI50 (K562 [1]): 49 µM
- GI50 (MCF7): 58 µM
- GI50 (HT-29): > 100 µM
- GI50 (Caco-2): > 100 µM

Compound: C[C@@]1(O)[C@@H](CO)O[C@@H](n2cnc3c(NN)nc(N)nc32)[C@@H]1O
- GI50 (HeLa): > 100 µM
- GI50 (K562 [1]): 91 µM
- GI50 (MCF7): > 100 µM
- GI50 (HT-29): > 100 µM
- GI50 (Caco-2): > 100 µM

Compound: CON(C)c1ncnc2c1ncn2[C@@H]1O[C@H](CO)[C@@](C)(O)[C@H]1O
- GI50 (HeLa): > 100 µM
- GI50 (K562 [1]): > 100 µM
- GI50 (MCF7): > 100 µM
- GI50 (HT-29): > 100 µM
- GI50 (Caco-2): > 100 µM

Compound: OC[C@H]1O[C@@H](n2cnc3/c(=N\O)[nH]cnc32)[C@H](O)[C@@H]1O
- GI50 (HeLa): 3.4 µM
- GI50 (K562 [1]): 31 µM
- GI50 (MCF7): > 100 µM
- GI50 (HT-29): 15 µM
- GI50 (Caco-2): > 100 µM

Compound: NNc1nc(N)nc2c1ncn2[C@@H]1O[C@H](CO)[C@@H](O)[C@H]1O
- GI50 (HeLa): > 100 µM
- GI50 (K562 [1]): > 100 µM
- GI50 (MCF7): > 100 µM
- GI50 (HT-29): > 100 µM
- GI50 (Caco-2): > 100 µM

Compound: CON(C)c1ncnc2c1ncn2[C@@H]1O[C@H](CO)[C@@H](O)[C@H]1O
- GI50 (HeLa): > 100 µM
- GI50 (K562 [1]): > 100 µM
- GI50 (MCF7): 46.8 µM
- GI50 (HT-29): > 100 µM
- GI50 (Caco-2): 84.1 µM

Compound: C[C@@]1(O)[C@@H](CO)O[C@@H](n2cnc3c(NO)nc(N)nc32)[C@@H]1O
- GI50 (HeLa): > 100 µM
- GI50 (K562 [1]): 94 µM
- GI50 (MCF7): > 100 µM
- GI50 (HT-29): > 100 µM
- GI50 (Caco-2): > 100 µM

Compound: CON(C)c1nc(N)nc2c1ncn2[C@@H]1O[C@H](CO)[C@@](C)(O)[C@H]1O
- GI50 (HeLa): > 100 µM
- GI50 (K562 [1]): > 100 µM
- GI50 (MCF7): > 100 µM
- GI50 (HT-29): > 100 µM
- GI50 (Caco-2): > 100 µM

Compound: NNc1ncnc2c1ncn2[C@H]1C[C@H](O)[C@@H](CO)O1
- GI50 (HeLa): 16 µM
- GI50 (K562 [1]): 12 µM
- GI50 (MCF7): 7.9 µM
- GI50 (HT-29): 18 µM
- GI50 (Caco-2): > 100 µM

Compound: C[C@@]1(O)[C@@H](CO)O[C@@H](n2cnc3c(NO)ncnc32)[C@@H]1O
- GI50 (HeLa): > 100 µM
- GI50 (K562 [1]): > 100 µM
- GI50 (MCF7): > 100 µM
- GI50 (HT-29): > 100 µM
- GI50 (Caco-2): > 100 µM

Compound: C[C@@]1(O)[C@@H](CO)O[C@@H](n2cnc3c(N)ncnc32)[C@@H]1O
- GI50 (HeLa): 23.3 µM
- GI50 (K562 [1]): 9.4 µM
- GI50 (MCF7): 22.4 µM
- GI50 (HT-29): 26.1 µM
- GI50 (Caco-2): 24.3 µM

Compound: CONc1nc(N)nc2c1ncn2[C@@H]1O[C@H](CO)[C@@](C)(O)[C@H]1O
- GI50 (HeLa): > 100 µM
- GI50 (K562 [1]): > 100 µM
- GI50 (MCF7): > 100 µM
- GI50 (HT-29): > 100 µM
- GI50 (Caco-2): > 100 µM

Compound: C[C@@]1(O)[C@@H](CO)O[C@@H](n2cnc3c(NN)ncnc32)[C@@H]1O
- GI50 (HeLa): > 100 µM
- GI50 (K562 [1]): > 100 µM
- GI50 (MCF7): > 100 µM
- GI50 (HT-29): > 100 µM
- GI50 (Caco-2): > 100 µM

Compound: CO/N=c1/[nH]cnc2c1ncn2[C@@H]1O[C@H](CO)[C@@H](O)[C@H]1O
- GI50 (HeLa): > 100 µM
- GI50 (K562 [1]): > 100 µM
- GI50 (MCF7): > 100 µM
- GI50 (HT-29): > 100 µM
- GI50 (Caco-2): > 100 µM

Compound: NNc1ncnc2c1ncn2[C@@H]1O[C@H](CO)[C@@H](O)[C@H]1O
- GI50 (HeLa): 0.52 µM
- TGI (HeLa; read-out: GI100): 5 µM
- GI50 (K562 [1]): 0.61 µM
- GI50 (MCF7): 0.35 µM
- TGI (MCF7; read-out: GI100): 6.1 µM
- GI50 (HT-29): 1.44 µM
- TGI (HT-29; read-out: GI100): 8.2 µM
- GI50 (Caco-2): 1.03 µM
- TGI (Caco-2; read-out: GI100): 5 µM
- inhibition [2]: Dose-dependent effect
- IC50 [3]: 232 µM
- inhibition [4]: Dose-dependent effect
- IC50 [5]: 244 µM
- TGI (K562 [6]): 2 µM

Compound: NNc1nc(Cl)nc2c1ncn2[C@@H]1O[C@H](CO)[C@@H](O)[C@H]1O
- GI50 (HeLa): 86 µM
- GI50 (K562 [1]): 87.1 µM
- GI50 (MCF7): 86.2 µM
- GI50 (HT-29): 86.2 µM
- GI50 (Caco-2): > 100 µM

Compound: CONc1ncnc2c1ncn2[C@@H]1O[C@H](CO)[C@@](C)(O)[C@H]1O
- GI50 (HeLa): > 100 µM
- GI50 (K562 [1]): > 100 µM
- GI50 (MCF7): > 100 µM
- GI50 (HT-29): > 100 µM
- GI50 (Caco-2): > 100 µM

Compound: Nc1nc2c(ncn2[C@@H]2O[C@H](CO)[C@@H](O)[C@H]2O)/c(=N\O)[nH]1
- GI50 (HeLa): > 100 µM
- GI50 (K562 [1]): 99 µM
- GI50 (MCF7): > 100 µM
- GI50 (HT-29): > 100 µM
- GI50 (Caco-2): > 100 µM

Compound: NNc1nc(NN)c2ncn([C@@H]3O[C@H](CO)[C@@H](O)[C@H]3O)c2n1
- GI50 (HeLa): 7.9 µM
- GI50 (K562 [1]): 30.7 µM
- GI50 (MCF7): 20.7 µM
- GI50 (HT-29): 61.4 µM
- GI50 (Caco-2): 18.8 µM

Reference: ChEMBL document CHEMBL1772936, “Synthesis and biological activity of novel N6-substituted and 2,N6-disubstituted adenine ribo- and 3'-C-methyl-ribonucleosides as antitumor agents” (Eur J Med Chem, 2011)
